Measured values from the NIST ThermoML archive (doi:10.1016/j.jct.2018.08.035).
± gives the expanded uncertainty stated by the source.

Experiment: xn = mol fraction of the nth substance listed
Conditions: 100 kPa, Liquid, Vibrating tube method

CCC(O)CC [3-pentanol] + C[N+](=O)[O-]
Conditions	mass density [kg/m3]
286.95 K, x1 = 0.629	904.586 ± 2
287.05 K, x1 = 0.629	904.424 ± 2
287.15 K, x1 = 0.629	904.324 ± 2
287.25 K, x1 = 0.629	904.302 ± 2
287.35 K, x1 = 0.629	904.234 ± 2
287.45 K, x1 = 0.629	904.174 ± 2
287.55 K, x1 = 0.629	904.105 ± 2
287.66 K, x1 = 0.629	904.02 ± 2
287.75 K, x1 = 0.629	903.747 ± 2.1
287.86 K, x1 = 0.629	903.73 ± 2.1
287.96 K, x1 = 0.629	903.653 ± 2.1
288.06 K, x1 = 0.629	903.559 ± 2.1
288.16 K, x1 = 0.629	903.339 ± 2.2
288.26 K, x1 = 0.629	903.249 ± 2.2
288.36 K, x1 = 0.629	903.208 ± 2.2
288.46 K, x1 = 0.629	903.194 ± 2.2
288.56 K, x1 = 0.629	903.023 ± 2.2
288.66 K, x1 = 0.629	902.916 ± 2.3
288.75 K, x1 = 0.629	902.883 ± 2.3
288.86 K, x1 = 0.629	902.656 ± 2.3
288.95 K, x1 = 0.629	902.639 ± 2.2
289.06 K, x1 = 0.629	902.563 ± 2.2
289.15 K, x1 = 0.246	1016.83 ± 2.1
289.15 K, x1 = 0.266	1014.93 ± 2.1
289.15 K, x1 = 0.275	1013.85 ± 2.1
289.15 K, x1 = 0.3	1007.8 ± 2.1
289.15 K, x1 = 0.325	1002.84 ± 2.1
289.15 K, x1 = 0.338	1001.68 ± 2.1
289.15 K, x1 = 0.363	999.874 ± 2.1
289.15 K, x1 = 0.382	999.889 ± 2.1
289.15 K, x1 = 0.407	999.35 ± 2.1
289.15 K, x1 = 0.486	980.562 ± 2.1
289.15 K, x1 = 0.488	978.895 ± 2.1
289.15 K, x1 = 0.546	955.829 ± 2.2
289.15 K, x1 = 0.573	937.786 ± 2.3
289.15 K, x1 = 0.615	911.044 ± 2.2
289.15 K, x1 = 0.629	902.484 ± 2.2
289.16 K, x1 = 0.587	928.424 ± 2.5
289.25 K, x1 = 0.246	1015.69 ± 2.1
289.25 K, x1 = 0.266	1014.12 ± 2.1
289.25 K, x1 = 0.275	1013.22 ± 2.1
289.25 K, x1 = 0.3	1007.17 ± 2.1
289.25 K, x1 = 0.325	1002.28 ± 2.1
289.25 K, x1 = 0.338	1000.75 ± 2.1
289.25 K, x1 = 0.363	998.168 ± 2.1
289.25 K, x1 = 0.382	998.358 ± 2.1
289.25 K, x1 = 0.407	997.887 ± 2.1
289.25 K, x1 = 0.414	998.161 ± 2.1
289.25 K, x1 = 0.486	979.734 ± 2.1
289.25 K, x1 = 0.488	978.223 ± 2.1
289.25 K, x1 = 0.546	953.328 ± 2.2
289.25 K, x1 = 0.573	937.432 ± 2.4
289.25 K, x1 = 0.587	924.098 ± 2.3
289.25 K, x1 = 0.629	902.36 ± 2.2
289.26 K, x1 = 0.615	910.892 ± 2.1
289.35 K, x1 = 0.3	1006.58 ± 2.1
289.35 K, x1 = 0.338	999.725 ± 2.1
289.36 K, x1 = 0.246	1014.41 ± 2.1
289.36 K, x1 = 0.266	1013.24 ± 2.1
289.36 K, x1 = 0.275	1012.41 ± 2.1
289.36 K, x1 = 0.325	1001.72 ± 2.1
289.36 K, x1 = 0.363	996.975 ± 2
289.36 K, x1 = 0.382	996.614 ± 2.1
289.36 K, x1 = 0.407	996.236 ± 2
289.36 K, x1 = 0.414	996.775 ± 2.1
289.36 K, x1 = 0.486	978.988 ± 2.1
289.36 K, x1 = 0.488	977.267 ± 2.1
289.36 K, x1 = 0.546	952.752 ± 2.2
289.36 K, x1 = 0.573	936.899 ± 2.4
289.36 K, x1 = 0.587	923.859 ± 2.3
289.36 K, x1 = 0.615	909.942 ± 2.3
289.36 K, x1 = 0.629	902.109 ± 2.2
289.45 K, x1 = 0.246	1013.13 ± 2.1
289.45 K, x1 = 0.266	1012.22 ± 2.1
289.45 K, x1 = 0.275	1011.52 ± 2.1
289.45 K, x1 = 0.3	1005.82 ± 2.1
289.45 K, x1 = 0.325	1001.04 ± 2.1
289.45 K, x1 = 0.338	998.278 ± 2
289.45 K, x1 = 0.363	996.016 ± 2
289.45 K, x1 = 0.382	994.795 ± 2
289.45 K, x1 = 0.407	994.989 ± 2
289.45 K, x1 = 0.414	995.114 ± 2.1
289.45 K, x1 = 0.486	977.635 ± 2.1
289.45 K, x1 = 0.488	975.638 ± 2.1
289.45 K, x1 = 0.546	951.819 ± 2.2
289.45 K, x1 = 0.573	936.914 ± 2.4
289.45 K, x1 = 0.587	923.684 ± 2.5
289.45 K, x1 = 0.629	901.973 ± 1.9
289.46 K, x1 = 0.615	903.573 ± 2.3
289.55 K, x1 = 0.266	1011 ± 2.1
289.55 K, x1 = 0.3	1005.09 ± 2.1
289.55 K, x1 = 0.325	1000.44 ± 2.1
289.55 K, x1 = 0.407	993.27 ± 2.1
289.55 K, x1 = 0.486	976.784 ± 2.1
289.55 K, x1 = 0.546	950.242 ± 2.2
289.55 K, x1 = 0.573	934.004 ± 2.4
289.55 K, x1 = 0.629	901.33 ± 2
289.56 K, x1 = 0.246	1011.83 ± 2.1
289.56 K, x1 = 0.275	1010.74 ± 2.1
289.56 K, x1 = 0.338	998.17 ± 2
289.56 K, x1 = 0.363	995.361 ± 2
289.56 K, x1 = 0.382	993.579 ± 2
289.56 K, x1 = 0.414	993.6 ± 2.1
289.56 K, x1 = 0.488	974.397 ± 2.1
289.56 K, x1 = 0.587	923.551 ± 2.4
289.56 K, x1 = 0.615	903.035 ± 2.2
289.65 K, x1 = 0.246	1010.76 ± 2.1
289.65 K, x1 = 0.266	1009.81 ± 2.1
289.65 K, x1 = 0.275	1009.82 ± 2.1
289.65 K, x1 = 0.3	1004.38 ± 2.1
289.65 K, x1 = 0.325	999.918 ± 2.1
289.65 K, x1 = 0.363	994.656 ± 2
289.65 K, x1 = 0.382	992.659 ± 2
289.65 K, x1 = 0.407	991.642 ± 2.1
289.65 K, x1 = 0.414	991.992 ± 2.1
289.65 K, x1 = 0.486	975.844 ± 2.1
289.65 K, x1 = 0.488	973.516 ± 2.1
289.65 K, x1 = 0.546	949.056 ± 2.2
289.65 K, x1 = 0.573	932.207 ± 2.3
289.65 K, x1 = 0.587	923.409 ± 2.4
289.65 K, x1 = 0.615	903.013 ± 2.3
289.65 K, x1 = 0.629	896.019 ± 2.4
289.66 K, x1 = 0.338	997.588 ± 2
289.75 K, x1 = 0.246	1009.91 ± 2.1
289.75 K, x1 = 0.266	1008.57 ± 2.1
289.75 K, x1 = 0.275	1008.78 ± 2.1
289.75 K, x1 = 0.3	1003.47 ± 2.1
289.75 K, x1 = 0.325	999.093 ± 2.1
289.75 K, x1 = 0.363	994.035 ± 2
289.75 K, x1 = 0.382	991.551 ± 2
289.75 K, x1 = 0.407	989.735 ± 2
289.75 K, x1 = 0.414	990.174 ± 2.1
289.75 K, x1 = 0.486	974.653 ± 2.1
289.75 K, x1 = 0.488	972.561 ± 2.1
289.75 K, x1 = 0.546	947.686 ± 2.2
289.75 K, x1 = 0.573	929.383 ± 2.3
289.75 K, x1 = 0.587	924.024 ± 2.4
289.75 K, x1 = 0.615	902.898 ± 2.4
289.76 K, x1 = 0.338	996.84 ± 2
289.85 K, x1 = 0.266	1007.2 ± 2.1
289.85 K, x1 = 0.275	1007.7 ± 2.1
289.85 K, x1 = 0.3	1002.58 ± 2.1
289.85 K, x1 = 0.325	998.305 ± 2.1
289.85 K, x1 = 0.363	993.362 ± 2
289.85 K, x1 = 0.382	990.377 ± 2
289.85 K, x1 = 0.407	988.132 ± 2
289.85 K, x1 = 0.414	988.452 ± 2
289.85 K, x1 = 0.486	973.161 ± 2.1
289.85 K, x1 = 0.488	971.375 ± 2.1
289.85 K, x1 = 0.546	946.847 ± 2.2
289.85 K, x1 = 0.573	928.807 ± 2.4
289.85 K, x1 = 0.587	917.506 ± 2.4
289.86 K, x1 = 0.246	1009.43 ± 2.1
289.86 K, x1 = 0.338	996.331 ± 2
289.86 K, x1 = 0.615	902.789 ± 2.1
289.95 K, x1 = 0.266	1005.77 ± 2.1
289.95 K, x1 = 0.275	1006.41 ± 2.1
